In US20110263507A1 (priority 2007, published 2011):
Where two headings read alike, the source gives them in different places. Where a SMILES comes first, the peptide text is derived from it. Where no end group is shown, it is not given here. [ ]: non-standard residue; d: D form. Ala(indol-4-yl) = N[C@@H](Cc1cccc2[nH]ccc12)C(=O)O; d1Nal = N[C@H](Cc1cccc2ccccc12)C(=O)O; NMeR = CN[C@@H](CCCNC(=N)N)C(=O)O; Tle = CC(C)(C)[C@H](N)C(=O)O; Orn = NCCC[C@H](N)C(=O)O

Columns and labels:
hNTS2 = biological target: T1, hNTS2 (Homo sapiens, UniProt O95665); assay: Radioligand competition binding with [3H]NT, membranes of CHO-K1 cells expressing hNTS2
T1 construct: expressed in transfected cells; host or cells: CHO-K1
T1 sequence (O95665 whole entry): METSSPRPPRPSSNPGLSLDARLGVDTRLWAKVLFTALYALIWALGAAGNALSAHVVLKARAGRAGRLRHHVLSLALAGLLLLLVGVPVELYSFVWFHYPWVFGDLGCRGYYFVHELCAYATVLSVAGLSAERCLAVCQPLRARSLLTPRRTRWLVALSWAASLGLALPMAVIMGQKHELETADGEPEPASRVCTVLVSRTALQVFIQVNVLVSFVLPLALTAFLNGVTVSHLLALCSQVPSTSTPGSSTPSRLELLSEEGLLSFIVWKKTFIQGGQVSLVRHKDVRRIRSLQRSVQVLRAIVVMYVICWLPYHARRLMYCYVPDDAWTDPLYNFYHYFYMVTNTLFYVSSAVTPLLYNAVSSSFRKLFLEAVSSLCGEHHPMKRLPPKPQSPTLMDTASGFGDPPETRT
Method: CHO-K1 cells that had been stably transfected separately with the hNTS1 or hNTS2 genes were cultured in 150 mm (500 cm^2) Petri plates with 35 ml of Dulbecco's modified Eagle's medium containing 100 μM minimal essential medium nonessential amino acids (Life Technologies, Inc.) supplemented with 5% (v/v) FetalClone II bovine serum product (Hyclone Labs, Logan, Utah). CHO cells (subculture 7-15) were harvested at confluence by aspiration of the medium, followed by a wash with ice-cold 50 mM Tris-HCl buffer, pH=7.4, which was discarded, resuspension in 5-15 ml of Tris-HCl, scraping the cells with a plastic spatula into a centrifuge tube, and collection of cells by centrifugation at 300×g for 5 min at 4° C., in a GPR centrifuge (Beckman Instruments, Fullerton, Calif.). The cellular pellet (in Tris-HCl buffer) was stored at −180° C. until the radioligand binding was performed.
Incubation was at 20° C. for 40 min. The assay was routinely terminated by addition of ice-cold 0.9% NaCl (5×1.5 ml), followed by rapid filtration through a GF/B filter strip that had been pretreated with 0.2% or 2% polyethyleneimine. […] Data were analyzed using the LIGAND program.
Curves were generated using the LIGAND program. […] Data are the means of duplicate determinations and are representative results from one of at least three independent experiments.

[1] = Degradation of peptides in plasma in vitro (stability to plasma peptidases); assay type: in vitro ADME; conditions: peptide incubated with human (FIG. 4) or rat plasma; for half-life: read-out: half-lives in plasma
Method: All peptides that were stable (half-lives >100 h), such as NT66, NT67, NT69, NT72, and NT73, have either a blocked amino group (N-Methyl-Arg) or a D-amino in the 8 or 9 position (Table 4).

hNTS1 = biological target: T2, hNTS1 (Homo sapiens, UniProt P30989); assay: Radioligand competition binding with [3H]NT, membranes of CHO-K1 cells expressing hNTS1; conditions: for hNTS1 Selectivity: Table 2, hNTS1 over hNTS2
T2 construct: expressed in transfected cells; host or cells: CHO-K1
T2 sequence (P30989 whole entry): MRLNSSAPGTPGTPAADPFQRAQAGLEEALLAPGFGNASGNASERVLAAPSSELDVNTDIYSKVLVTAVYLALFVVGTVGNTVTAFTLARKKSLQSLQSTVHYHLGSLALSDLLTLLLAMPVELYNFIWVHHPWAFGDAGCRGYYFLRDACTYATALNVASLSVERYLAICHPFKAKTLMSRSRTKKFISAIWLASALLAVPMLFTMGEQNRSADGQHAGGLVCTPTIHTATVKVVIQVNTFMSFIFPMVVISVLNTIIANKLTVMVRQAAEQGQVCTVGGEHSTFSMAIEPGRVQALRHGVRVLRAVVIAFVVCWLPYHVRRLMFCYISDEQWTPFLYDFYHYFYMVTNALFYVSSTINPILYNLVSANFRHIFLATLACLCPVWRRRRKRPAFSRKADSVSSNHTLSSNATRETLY
Method: CHO-K1 cells that had been stably transfected separately with the hNTS1 or hNTS2 genes were cultured in 150 mm (500 cm^2) Petri plates with 35 ml of Dulbecco's modified Eagle's medium containing 100 μM minimal essential medium nonessential amino acids (Life Technologies, Inc.) supplemented with 5% (v/v) FetalClone II bovine serum product (Hyclone Labs, Logan, Utah). […] The cellular pellet (in Tris-HCl buffer) was stored at […] until the radioligand binding was performed.
For use in binding assays, crude membrane preparations were prepared by centrifugation of the cellular pellet at 35,600×g for 10 min. The supernatant was decanted and discarded, and the cellular pellet was resuspended in 1 ml of Tris-HCl buffer followed by homogenization with a Brinkmann Polytron at setting 5.5 for 15 s. Centrifugation was repeated as above, the supernatant was decanted and discarded, and the cellular pellet was resuspended in 1 ml of Tris-HCl buffer followed by homogenization. Centrifugation was repeated a third time, the supernatant was discarded, and the final cellular pellet was suspended in 0.5-2.5 ml of Tris-HCl buffer. Protein concentration of the membrane preparation was estimated by the method of Lowry et al. using bovine serum albumin as a standard.
Incubation was at 20° C. for 40 min. The assay was routinely terminated by addition of ice-cold 0.9% NaCl (5×1.5 ml), followed by rapid filtration through a GF/B filter strip that had been pretreated with 0.2% or 2% polyethyleneimine. Details of binding assays have been described previously. […] Data were analyzed using the LIGAND program.

6-keto-prostaglandin F1α = assay: Plasma prostaglandin levels after injection; assay type: in vivo; conditions: mice, 30 min after injection; NT69 2 mg/kg, NT79 20 mg/kg intraperitoneally; compared to saline; surrogate marker for hypotension
Method: Blood samples from 3 mice were pooled for each condition.
Therefore, in preliminary studies, levels of 6-keto-prostaglandin F1α immunoreactivity were measured after injection of saline, NT69, or NT79 into mice (FIG. 8).

[2] = Body temperature lowering in mice; assay type: in vivo; conditions: intraperitoneal; for effect on body temperature: 10 times the dosage of that for NT69, FIG. 5
Description: At time “0” baseline readings were made. […] The thermistor probe was inserted 2 cm into the rectum for the measurement of body temperature.

[3] = Direct injection into the brains of rats; assay type: in vivo; conditions: direct injection into brain, unpublished observations
Description: (See Cusack, B. et al. BRAIN RES 856: 48-54 (2000) and Tyler-McMahon, B. M. et al. EUR J PHARMACOL 390: 107-11 (2000)).

[4] = Acetic acid-induced writhing test; assay type: in vivo; conditions: rats, 20 mg/kg intraperitoneally, FIG. 7
Method: The writhing test was used to measure changes in the nociceptive threshold to a chemical stimulus. The rats were administered 20 mg/kg of NT79 intraperitoneally. The rats were also injected with 0.5 ml of a 2% (v/v) aqueous solution of acetic acid and placed individually in clear plastic containers for observation.
Behavioral Measure: The number of writhes was counted during a 60 min observation period. A writhe was defined as stretching of the hind limbs accompanied by a contraction of abdominal muscles. Analgesic compounds will result in lower number of writhes.

Tail flick test = assay type: in vivo; conditions: rats, 20 mg/kg intraperitoneally, FIG. 6
Method: The tail flick test also measures changes in nociceptive threshold to thermal stimulus. The rats were administered 20 mg/kg of NT79 intraperitoneally. The rat was placed in a restrainer. Water was heated to 52° C. (52-54° C.). The rat's tail was immersed in the heated water. The latency to flick the tail was recorded. A 10 sec cutoff period was used to prevent tissue damage. Antinociception was expressed as a percentage of the Maximal Possible Effect (MPE) % MPE=100×(test latency−baseline latency)/(cutoff time {10 s}−baseline latency). Analgesic compounds will result in higher % MPE.

[5] = Table 2, read-out: hNTS2 Geometric Mean ∀ SEM (equilibrium dissociation constant Kd)
[6] = read-out: hNTS1 Geometric Mean ∀ SEM (equilibrium dissociation constant Kd)

Compound | hNTS2 Selectivity (hNTS2; Table 2, hNTS2 over hNTS1) | Kd (hNTS2; [5]) | hNTS2 Selectivity (hNTS2; Table 4) | half-life [1] | hNTS1 Selectivity (hNTS1) | Kd (hNTS1; [6]) | other results
CC(C)C[C@H](NC(=O)[C@@H](NC(=O)[C@H](Cc1cccc2[nH]ccc12)NC(=O)[C@@H]1CCCN1C(=O)[C@H](CCCNC(=N)N)NC(=O)[C@H](N)CCCCN)C(C)(C)C)C(=O)O [NT66L, [D-Lys^8,L-neo-Trp^11,tert-Leu^12]NT(8-13)] (H-[dK]RP[Ala(indol-4-yl)][Tle]L-OH; N-terminus and C-terminus assumed) | 1.4 | 7.1 ± 0.8 nM | 2 | > 100 h | 0.7 | 10.2 ± 0.6 nM | –
CN[C@@H](CCCNC(=N)N)C(=O)N[C@@H](CCCCN)C(=O)N1CCC[C@H]1C(=O)N[C@@H](Cc1cccc2[nH]ccc12)C(=O)N[C@H](C(=O)N[C@@H](CC(C)C)C(=O)O)C(C)(C)C [NT69L, [N-methyl-Arg^8,L-Lys^9,L-neo-Trp^11,tert-Leu^12]NT(8-13)] (H-[NMeR]KP[Ala(indol-4-yl)][Tle]L-OH; C-terminus assumed) | 1.5 | 2.1 ± 0.2 nM | 1.5 | > 100 h | 0.7 | 3.1 ± 0.4 nM | plasma levels of prostaglandin (6-keto-prostaglandin F1α immunoreactivity) (6-keto-prostaglandin F1α): markedly elevated; change in body temperature (decrease) ([2]; FIG. 5): about 10 °C
CC[C@H](C)[C@H](NC(=O)[C@H](Cc1cccc2[nH]ccc12)NC(=O)[C@@H]1CCCN1C(=O)[C@H](N)CCCCN)C(=O)N[C@@H](CC(C)C)C(=O)O [NT73, [D-Lys^9,L-neo-Trp^11]NT(9-13)] (H-[dK]P[Ala(indol-4-yl)]IL-OH; N-terminus and C-terminus assumed) | 0.2 | 162 ± 3 nM | – | > 100 h | 5.5 | 30 ± 3 nM | –
CC(C)C[C@H](NC(=O)[C@@H](NC(=O)[C@H](Cc1cccc2[nH]ccc12)NC(=O)[C@@H]1CCCN1C(=O)[C@H](N)CCCCN)C(C)(C)C)C(=O)O [NT72, [D-Lys^9,L-neo-Trp^11,tert-Leu^12]NT(9-13)] (H-[dK]P[Ala(indol-4-yl)][Tle]L-OH; N-terminus and C-terminus assumed) | 0.02 | – | — (“—“ indicates higher affinity for hNTS1) | > 100 h | 41.0 | – | Kd (hNTS2; text, read-out: Kd at hNTS2): 1400 nM; Kd (hNTS1; text, read-out: Kd at hNTS1): 34 nM
CC[C@H](C)[C@H](NC(=O)[C@@H](Cc1cccc2ccccc12)NC(=O)[C@@H]1CCCN1C(=O)[C@H](CCCNC(=N)N)NC(=O)[C@@H](N)CCCNC(=N)N)C(=O)N[C@@H](CC(C)C)C(=O)O [NT50, [D-3,1-Nal^11]NT(8-13)] | – | – | – | – | – | – | behavioral effect [3]: caused behavioral activation; effects on body temperature [3]: little or no effects on body temperature; Kd (hNTS2; text, read-out: Kd at hNTS2): 17.3 nM
CC[C@H](C)[C@H](NC(=O)[C@H](Cc1cccc2[nH]ccc12)NC(=O)[C@@H]1CCCN1C(=O)[C@H](CCCNC(=N)N)NC(=O)[C@H](N)CCCCN)C(=O)N[C@@H](CC(C)C)C(=O)O [NT67L, [D-Lys^8,L-neo-Trp^11]NT(8-13)] (H-[dK]RP[Ala(indol-4-yl)]IL-OH; N-terminus and C-terminus assumed) | 0.5 | 1.23 ± 0.03 nM | — (“—“ indicates higher affinity for hNTS1) | > 100 h | 2.1 | 0.59 ± 0.05 nM | –
CN[C@@H](CCCNC(=N)N)C(=O)N[C@@H](CCCNC(=N)N)C(=O)N1CCC[C@H]1C(=O)N[C@H](Cc1cccc2ccccc12)C(=O)N[C@H](C(=O)N[C@@H](CC(C)C)C(=O)O)C(C)(C)C [NT79, [N-methyl-Arg^8,D-3,1-Nal^11,tert-Leu^12]NT(8-13)] (H-[NMeR]RP[d1Nal][Tle]L-OH; C-terminus assumed) | 82 | – | 82 | – | – | – | plasma levels of prostaglandin (6-keto-prostaglandin F1α immunoreactivity) (6-keto-prostaglandin F1α): no effect; Kd (hNTS2): 22 nM; selectivity for hNTS2 (hNTS2; text): 82 fold; antinociceptive effect in writhing pain model [4]: robust antinociceptive effect; antinociceptive effect in tail flick assay (Tail flick test): demonstrated antinociceptive effects; effect on body temperature [2]: minimal effects; Kd (hNTS1): 1800 nM; Kd (hNTS1; Kd at hNTS1): ~1800 nM
CC(C)C[C@H](NC(=O)[C@@H](NC(=O)[C@H](Cc1cccc2[nH]ccc12)NC(=O)[C@@H]1CCCN1C(=O)[C@H](CCCNC(=N)N)NC(=O)[C@@H](N)CCCNC(=N)N)C(C)(C)C)C(=O)O [NT65, [neo-Trp^11,tert-Leu^12]NT(8-13)] (H-RRP[Ala(indol-4-yl)][Tle]L-OH; N-terminus and C-terminus assumed) | 1.9 | 0.52 ± 0.03 nM | 1.7 | – | 0.5 | 1.01 ± 0.05 nM | degradation in plasma [1]: rapidly degraded
CC[C@H](C)[C@H](NC(=O)[C@H](Cc1cccc2[nH]ccc12)NC(=O)[C@@H]1CCCN1C(=O)[C@H](CCCNC(=N)N)NC(=O)[C@@H](N)CCCNC(=N)N)C(=O)N[C@@H](CC(C)C)C(=O)O [NT64L, [L-neo-Trp^11]NT(8-13)] | – | – | – | – | – | – | degradation in plasma [1]: rapidly degraded
RRPYLL [NT09, [L-Leu^12]NT(8-13)] | 2.9 | – | – | – | 0.3 | – | Kd (hNTS2): 2.4 ± 0.3 nM; Kd (hNTS1): 7.2 ± 0.6 nM
CC[C@H](C)[C@H](NC(=O)[C@H](Cc1ccc(O)cc1)NC(=O)[C@@H]1CCCN1C(=O)[C@@H](N)CCCN)C(=O)N[C@@H](CC(C)C)C(=O)O [NT34, [L-Orn^9]NT(9-13)] (H-[Orn]PYIL-OH; N-terminus and C-terminus assumed) | 0.3 | 1190 ± 40 nM | – | – | 4.0 | 300 ± 50 nM | –
CC[C@H](C)[C@H](NC(=O)[C@@H](Cc1cccc2ccccc12)NC(=O)[C@@H]1CCCN1C(=O)[C@H](CCCNC(=N)N)NC(=O)[C@H](CCCNC(=N)N)NC)C(=O)N[C@@H](CC(C)C)C(=O)O [NT80, [N-methyl-Arg^8,D-3,1-Nal^11]NT(8-13)] | – | 30 nM | – | – | – | – | Kd (hNTS2; text, read-out: Kd at hNTS2): ~30 nM; effect on body temperature [2]: minimal effects
